Experimental data taken from ChEMBL document CHEMBL5465560, “Selectivity Literature for EUbOPEN Chemogenomic Library” (2024).

Assays:
[1] = molecular target: Maternal embryonic leucine zipper kinase (Homo sapiens) (UniProt Q14680); experiment: Selectivity interaction (KinomeScan (DiscoverX)) EUB0001079a MELK; settings: at 1 µM
[2] = molecular target: Citron Rho-interacting kinase (Homo sapiens) (UniProt O14578); experiment: Selectivity interaction (KinomeScan (DiscoverX)) EUB0001079a CIT; settings: at 1 µM
[3] = molecular target: T1, Serine/threonine-protein kinase TAO3 (Homo sapiens) (UniProt Q9H2K8); experiment: Selectivity interaction (LanthaScreen Eu Kinase Binding Assay) EUB0001632a TAOK3; settings: at 10 µM
T1 sequence (whole entry): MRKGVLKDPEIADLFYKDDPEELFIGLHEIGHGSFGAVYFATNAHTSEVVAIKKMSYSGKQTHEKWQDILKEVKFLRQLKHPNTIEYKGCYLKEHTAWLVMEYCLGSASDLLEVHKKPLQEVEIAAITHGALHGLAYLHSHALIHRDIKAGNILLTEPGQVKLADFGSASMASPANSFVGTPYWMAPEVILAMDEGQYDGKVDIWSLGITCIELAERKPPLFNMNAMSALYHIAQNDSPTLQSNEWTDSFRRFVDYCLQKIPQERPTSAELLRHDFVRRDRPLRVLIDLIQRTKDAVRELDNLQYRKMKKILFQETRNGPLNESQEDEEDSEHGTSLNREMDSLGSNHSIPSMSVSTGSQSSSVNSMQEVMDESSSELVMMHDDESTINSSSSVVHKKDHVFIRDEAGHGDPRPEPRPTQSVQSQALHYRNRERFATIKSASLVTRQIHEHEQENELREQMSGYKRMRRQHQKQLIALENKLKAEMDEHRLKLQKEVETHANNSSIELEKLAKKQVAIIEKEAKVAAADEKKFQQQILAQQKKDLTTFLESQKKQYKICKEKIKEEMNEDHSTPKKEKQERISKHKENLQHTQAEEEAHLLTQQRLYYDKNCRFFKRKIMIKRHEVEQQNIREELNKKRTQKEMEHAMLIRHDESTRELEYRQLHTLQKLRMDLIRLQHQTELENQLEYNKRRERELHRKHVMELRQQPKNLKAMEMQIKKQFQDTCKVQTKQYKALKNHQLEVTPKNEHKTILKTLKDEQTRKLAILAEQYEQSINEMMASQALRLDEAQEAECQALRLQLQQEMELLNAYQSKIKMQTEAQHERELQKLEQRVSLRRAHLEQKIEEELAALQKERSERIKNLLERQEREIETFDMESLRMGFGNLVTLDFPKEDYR

[4] = molecular target: Inactive tyrosine-protein kinase PEAK1 (Homo sapiens) (UniProt Q9H792); experiment: Selectivity interaction (Kinase panel (Z-LYTE Assay)) EUB0001632a PEAK1; settings: at 10 µM
[5] = molecular target: Focal adhesion kinase 1 (Homo sapiens, UniProt Q05397); experiment: Selectivity interaction (Kinase panel (Z-LYTE Assay)) EUB0001632a PTK2; settings: at 10 µM
[6] = molecular target: T2, Tyrosine-protein kinase ZAP-70 (Homo sapiens) (UniProt P43403); experiment: Selectivity interaction (Millipore kinase profiler) EUB0000124b ZAP70; settings: at 10 µM
T2 sequence (whole entry): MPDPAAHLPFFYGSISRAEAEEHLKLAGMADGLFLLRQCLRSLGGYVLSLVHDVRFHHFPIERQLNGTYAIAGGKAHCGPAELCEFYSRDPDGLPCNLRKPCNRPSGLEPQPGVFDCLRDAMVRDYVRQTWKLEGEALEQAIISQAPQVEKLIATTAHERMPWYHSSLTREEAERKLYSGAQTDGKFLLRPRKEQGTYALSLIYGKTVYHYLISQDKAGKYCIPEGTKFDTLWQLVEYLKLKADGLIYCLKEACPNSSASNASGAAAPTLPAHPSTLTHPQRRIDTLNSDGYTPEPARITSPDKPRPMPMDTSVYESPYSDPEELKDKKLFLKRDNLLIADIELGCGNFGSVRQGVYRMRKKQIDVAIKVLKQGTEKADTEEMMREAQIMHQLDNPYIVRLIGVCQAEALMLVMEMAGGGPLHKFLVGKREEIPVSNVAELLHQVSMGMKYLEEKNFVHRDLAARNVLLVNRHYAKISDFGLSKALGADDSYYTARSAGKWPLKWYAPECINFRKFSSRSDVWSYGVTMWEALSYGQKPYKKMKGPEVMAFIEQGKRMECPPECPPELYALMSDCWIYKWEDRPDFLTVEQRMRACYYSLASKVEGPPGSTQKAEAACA

[7] = molecular target: T3, Mitogen-activated protein kinase 15 (Homo sapiens) (UniProt Q8TD08); experiment: Selectivity interaction (KinomeScan (DiscoverX)) EUB0001619a MAPK15; settings: at 1 µM
T3 sequence (whole entry): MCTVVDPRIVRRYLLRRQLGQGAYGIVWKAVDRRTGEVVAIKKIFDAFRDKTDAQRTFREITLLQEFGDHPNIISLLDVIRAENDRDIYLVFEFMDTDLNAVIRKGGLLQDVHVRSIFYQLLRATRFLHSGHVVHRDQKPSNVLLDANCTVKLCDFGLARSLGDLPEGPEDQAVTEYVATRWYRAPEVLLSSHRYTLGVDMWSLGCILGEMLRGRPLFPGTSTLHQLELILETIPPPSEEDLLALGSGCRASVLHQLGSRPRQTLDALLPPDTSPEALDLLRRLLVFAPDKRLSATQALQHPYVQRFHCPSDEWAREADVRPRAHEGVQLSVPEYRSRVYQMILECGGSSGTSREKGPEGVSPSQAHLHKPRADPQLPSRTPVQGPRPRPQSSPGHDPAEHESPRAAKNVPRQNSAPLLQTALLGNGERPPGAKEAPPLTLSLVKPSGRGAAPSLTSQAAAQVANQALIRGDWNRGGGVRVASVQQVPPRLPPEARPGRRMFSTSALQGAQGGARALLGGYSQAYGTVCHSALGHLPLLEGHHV

[8] = molecular target: Serine/threonine-protein kinase PRP4 homolog (Homo sapiens) (UniProt Q13523); experiment: Selectivity interaction (KinomeScan (DiscoverX)) EUB0000607a PRPF4; settings: at 10 µM
[9] = molecular target: Tyrosine-protein kinase FRK (Homo sapiens) (UniProt P42685); experiment: Selectivity interaction (KinomeScan (DiscoverX)) EUB0000607a FRK; settings: at 10 µM
[10] = molecular target: Glutamate receptor ionotropic, NMDA 2B (Homo sapiens) (UniProt Q13224); experiment: Selectivity interaction (Panel of kinases, GPCRs, ion channels and transporters (enzymatic assay)) EUB0000266bCl GRIN2B
[11] = molecular target: Ephrin type-A receptor 5 (Homo sapiens) (UniProt P54756); experiment: Selectivity interaction (KinomeScan (DiscoverX)) EUB0000092b EPHA5; settings: at 10 µM

Citron Rho-interacting kinase (Homo sapiens), sequence (O14578 whole entry): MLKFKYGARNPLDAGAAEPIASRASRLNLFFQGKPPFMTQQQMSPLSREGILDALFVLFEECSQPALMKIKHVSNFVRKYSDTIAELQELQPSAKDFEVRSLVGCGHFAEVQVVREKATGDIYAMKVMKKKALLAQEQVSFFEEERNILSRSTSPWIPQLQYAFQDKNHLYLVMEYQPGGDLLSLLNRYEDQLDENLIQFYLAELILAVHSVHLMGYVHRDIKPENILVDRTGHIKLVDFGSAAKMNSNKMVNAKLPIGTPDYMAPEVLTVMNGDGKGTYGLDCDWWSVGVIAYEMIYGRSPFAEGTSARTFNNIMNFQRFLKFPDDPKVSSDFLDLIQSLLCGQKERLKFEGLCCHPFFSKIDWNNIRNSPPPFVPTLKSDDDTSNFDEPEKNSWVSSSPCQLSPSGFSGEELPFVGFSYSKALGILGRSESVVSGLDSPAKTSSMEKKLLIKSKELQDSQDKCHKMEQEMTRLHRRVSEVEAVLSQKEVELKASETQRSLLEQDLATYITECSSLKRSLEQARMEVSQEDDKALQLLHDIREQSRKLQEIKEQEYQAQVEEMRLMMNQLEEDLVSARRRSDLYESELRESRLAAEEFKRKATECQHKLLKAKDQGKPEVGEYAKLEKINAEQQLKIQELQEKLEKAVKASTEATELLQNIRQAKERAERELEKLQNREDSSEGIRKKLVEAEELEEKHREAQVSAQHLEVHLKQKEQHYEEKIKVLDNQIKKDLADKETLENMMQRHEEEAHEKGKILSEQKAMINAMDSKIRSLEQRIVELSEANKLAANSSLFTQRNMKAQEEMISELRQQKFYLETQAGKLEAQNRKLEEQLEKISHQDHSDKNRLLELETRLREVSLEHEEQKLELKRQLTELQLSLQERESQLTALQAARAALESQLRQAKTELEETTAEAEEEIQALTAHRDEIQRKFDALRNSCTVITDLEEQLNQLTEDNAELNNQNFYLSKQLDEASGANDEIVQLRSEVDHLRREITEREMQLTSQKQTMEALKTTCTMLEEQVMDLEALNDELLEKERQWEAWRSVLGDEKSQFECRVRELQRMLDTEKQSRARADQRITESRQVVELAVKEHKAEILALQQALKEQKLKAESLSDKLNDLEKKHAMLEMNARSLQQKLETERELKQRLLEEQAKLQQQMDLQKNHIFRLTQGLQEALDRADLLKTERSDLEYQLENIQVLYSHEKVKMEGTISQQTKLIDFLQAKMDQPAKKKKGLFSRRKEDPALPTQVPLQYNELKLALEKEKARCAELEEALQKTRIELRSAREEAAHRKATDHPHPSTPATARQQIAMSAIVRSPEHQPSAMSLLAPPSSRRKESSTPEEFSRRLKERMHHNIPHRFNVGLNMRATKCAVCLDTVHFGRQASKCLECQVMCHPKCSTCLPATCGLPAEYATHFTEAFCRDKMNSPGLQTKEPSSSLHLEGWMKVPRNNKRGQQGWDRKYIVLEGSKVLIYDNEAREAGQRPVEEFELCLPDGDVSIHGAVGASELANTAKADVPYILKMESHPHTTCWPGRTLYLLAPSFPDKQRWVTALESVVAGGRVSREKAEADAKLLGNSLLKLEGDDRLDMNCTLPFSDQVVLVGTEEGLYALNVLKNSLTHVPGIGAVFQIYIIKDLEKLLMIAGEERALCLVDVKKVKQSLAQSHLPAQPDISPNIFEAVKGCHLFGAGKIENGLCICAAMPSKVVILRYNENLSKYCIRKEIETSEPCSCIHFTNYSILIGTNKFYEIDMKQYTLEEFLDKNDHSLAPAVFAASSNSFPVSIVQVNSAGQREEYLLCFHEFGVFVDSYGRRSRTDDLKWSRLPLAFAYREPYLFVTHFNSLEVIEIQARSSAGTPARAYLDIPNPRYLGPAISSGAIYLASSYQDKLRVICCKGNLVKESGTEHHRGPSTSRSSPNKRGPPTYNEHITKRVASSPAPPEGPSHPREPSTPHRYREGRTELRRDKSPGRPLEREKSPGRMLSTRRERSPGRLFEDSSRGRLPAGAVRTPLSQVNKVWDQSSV
Tyrosine-protein kinase FRK (Homo sapiens), sequence (P42685 whole entry): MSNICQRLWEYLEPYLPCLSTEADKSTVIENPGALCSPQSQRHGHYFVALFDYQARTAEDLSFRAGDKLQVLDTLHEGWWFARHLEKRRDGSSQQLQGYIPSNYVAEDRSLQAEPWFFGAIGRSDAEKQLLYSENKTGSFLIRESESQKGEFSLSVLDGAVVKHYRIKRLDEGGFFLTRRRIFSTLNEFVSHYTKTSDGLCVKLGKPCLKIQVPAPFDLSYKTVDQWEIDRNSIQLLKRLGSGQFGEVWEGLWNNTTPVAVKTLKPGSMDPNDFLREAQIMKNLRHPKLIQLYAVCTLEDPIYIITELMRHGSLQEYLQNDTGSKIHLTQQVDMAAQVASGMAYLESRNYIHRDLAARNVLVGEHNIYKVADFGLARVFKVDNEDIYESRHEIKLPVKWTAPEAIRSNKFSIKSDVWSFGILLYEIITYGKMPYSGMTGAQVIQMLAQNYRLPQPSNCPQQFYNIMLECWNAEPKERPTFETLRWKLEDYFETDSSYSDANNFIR
Inactive tyrosine-protein kinase PEAK1 (Homo sapiens), sequence (Q9H792 whole entry): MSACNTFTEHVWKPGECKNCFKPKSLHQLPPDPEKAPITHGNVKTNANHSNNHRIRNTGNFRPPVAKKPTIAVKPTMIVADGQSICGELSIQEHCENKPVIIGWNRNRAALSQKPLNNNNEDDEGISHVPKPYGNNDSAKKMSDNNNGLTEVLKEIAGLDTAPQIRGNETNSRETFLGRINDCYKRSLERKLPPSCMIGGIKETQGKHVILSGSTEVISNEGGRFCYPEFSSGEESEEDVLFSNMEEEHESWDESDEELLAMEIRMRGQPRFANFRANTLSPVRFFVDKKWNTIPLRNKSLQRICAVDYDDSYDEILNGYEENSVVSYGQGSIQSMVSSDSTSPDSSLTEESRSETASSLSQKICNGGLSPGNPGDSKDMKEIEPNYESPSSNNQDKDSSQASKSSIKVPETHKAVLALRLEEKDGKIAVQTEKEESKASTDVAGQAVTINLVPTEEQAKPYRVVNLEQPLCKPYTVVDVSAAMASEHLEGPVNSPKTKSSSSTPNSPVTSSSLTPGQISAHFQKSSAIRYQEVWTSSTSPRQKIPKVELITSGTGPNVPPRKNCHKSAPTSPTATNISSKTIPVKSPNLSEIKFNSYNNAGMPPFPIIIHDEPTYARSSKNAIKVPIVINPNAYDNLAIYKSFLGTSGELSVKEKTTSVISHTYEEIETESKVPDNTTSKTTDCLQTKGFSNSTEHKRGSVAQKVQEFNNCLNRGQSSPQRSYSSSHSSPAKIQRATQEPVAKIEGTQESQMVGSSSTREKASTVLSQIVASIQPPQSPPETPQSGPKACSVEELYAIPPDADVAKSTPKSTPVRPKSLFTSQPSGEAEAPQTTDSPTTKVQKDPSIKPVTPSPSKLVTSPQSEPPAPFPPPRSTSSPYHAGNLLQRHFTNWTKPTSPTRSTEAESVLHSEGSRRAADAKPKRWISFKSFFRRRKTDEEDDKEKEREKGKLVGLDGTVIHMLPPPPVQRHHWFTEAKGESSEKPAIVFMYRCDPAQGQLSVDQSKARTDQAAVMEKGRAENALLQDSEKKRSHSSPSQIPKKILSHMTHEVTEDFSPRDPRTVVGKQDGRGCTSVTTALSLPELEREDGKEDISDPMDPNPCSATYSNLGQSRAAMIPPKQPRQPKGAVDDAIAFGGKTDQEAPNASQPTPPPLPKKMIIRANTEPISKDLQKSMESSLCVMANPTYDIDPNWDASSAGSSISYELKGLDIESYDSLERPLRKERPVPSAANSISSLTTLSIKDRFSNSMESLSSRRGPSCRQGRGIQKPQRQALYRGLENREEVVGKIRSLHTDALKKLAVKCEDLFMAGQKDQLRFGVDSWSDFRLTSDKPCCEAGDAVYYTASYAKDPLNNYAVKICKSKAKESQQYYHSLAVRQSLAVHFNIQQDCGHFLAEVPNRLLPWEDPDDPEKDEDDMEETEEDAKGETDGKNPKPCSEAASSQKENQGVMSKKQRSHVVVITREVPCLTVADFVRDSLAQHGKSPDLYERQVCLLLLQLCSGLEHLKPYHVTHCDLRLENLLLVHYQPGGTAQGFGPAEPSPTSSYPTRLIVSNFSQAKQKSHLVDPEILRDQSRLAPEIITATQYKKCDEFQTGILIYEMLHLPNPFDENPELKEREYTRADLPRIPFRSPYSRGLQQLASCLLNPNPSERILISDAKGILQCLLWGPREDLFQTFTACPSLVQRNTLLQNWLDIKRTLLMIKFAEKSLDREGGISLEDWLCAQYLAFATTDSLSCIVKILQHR
Maternal embryonic leucine zipper kinase (Homo sapiens), sequence (Q14680 whole entry, looked up): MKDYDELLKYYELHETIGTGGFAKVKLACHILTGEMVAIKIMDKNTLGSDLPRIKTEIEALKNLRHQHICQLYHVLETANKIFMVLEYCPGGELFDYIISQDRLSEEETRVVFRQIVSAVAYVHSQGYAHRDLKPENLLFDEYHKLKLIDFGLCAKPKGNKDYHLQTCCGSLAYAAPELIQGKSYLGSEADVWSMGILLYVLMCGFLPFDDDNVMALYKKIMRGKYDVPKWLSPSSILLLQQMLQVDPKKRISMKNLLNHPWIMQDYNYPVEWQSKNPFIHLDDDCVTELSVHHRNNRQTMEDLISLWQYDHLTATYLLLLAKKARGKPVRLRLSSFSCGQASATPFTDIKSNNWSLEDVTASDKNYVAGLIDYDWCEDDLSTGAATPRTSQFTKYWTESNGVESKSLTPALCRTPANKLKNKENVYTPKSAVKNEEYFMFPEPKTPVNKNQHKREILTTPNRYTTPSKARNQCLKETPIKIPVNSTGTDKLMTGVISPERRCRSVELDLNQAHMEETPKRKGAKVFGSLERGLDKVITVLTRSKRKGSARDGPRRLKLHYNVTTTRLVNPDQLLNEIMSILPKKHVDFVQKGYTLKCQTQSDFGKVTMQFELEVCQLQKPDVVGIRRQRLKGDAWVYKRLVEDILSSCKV

Nc1cnc(N2CCc3cc(S(=O)(=O)Nc4c(F)cc(Cl)cc4F)cc(N4CCCC4=O)c32)nc1 [TP-020n]
% of control [1]: 90% | % of control [2]: 91%

Cn1cc(-n2cnc3c(NCc4nc5cc(Cl)c(Cl)cc5[nH]4)nc(N4CCOCC4)nc32)cn1
% of inhibition [3]: 7.54% | % of control [4]: 11.7% | % of control [5]: 5.39%

CC(=O)Nc1cccc(-n2c(=O)n(C3CC3)c(=O)c3c(Nc4ccc(I)cc4F)n(C)c(=O)c(C)c32)c1
% of control [6]: 111%

N#Cc1cccc(-c2c[nH]c3ncnc(N4CCOCC4)c23)c1
% of control [7]: 56%

CNC(=O)Nc1ccc(-c2nc(N3CC4CCC(C3)O4)c3cnn(C4CCC5(CC4)OCCO5)c3n2)cc1
% of control [8]: 70% | % of control [9]: 68%

CCn1c(-c2nc3cc(C(=O)N4CCCC(N)C4)ccc3n2C)cc2ccccc21 (stereo unspecified)
pXC50 [10]: < 4.3 M

CCC(=O)N1CCN(c2ccc(-n3c(=O)ccc4cnc5ccc(-c6cnc7ccccc7c6)cc5c43)cc2C(F)(F)F)CC1
% of control [11]: 100%
